# Measurements published in paper PMC10046961, “High-Throughput Screening Assay for Detecting Drug-Induced Changes in Synchronized Neuronal Oscillations and Potential Seizure Risk Based on Ca^2+ Fluorescence Measurements in Human Induced Pluripotent Stem Cell (hiPSC)-Derived Neuronal 2D and 3D Cultures” (Cells, 2023).
# Read-outs that look alike come from different tables or passages of the source. Marks after values point to notes of the source that are not given here.
# How the values were obtained:
# [1] = test system: hiPSC-derived neurons co-cultured with human primary astrocytes in 2D; test: Ca2+ transient oscillation assay (FDSS), 2D co-culture; type: cell-based; conditions: for activation at 11.11 µM / activation at 33.33 µM / activation at 100 µM / activation at 300 µM: Homo sapiens, 1 h, 60 min
# Outline: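 Cultures were 10,000 CW50065 hiPSC excitatory neurons plus 2500 primary human astrocytes per well. Recordings used Cal-520 dye in HBSS/HEPES/glucose at 37 °C, with a 470/540 nm read at 2 Hz. Oscillations were stabilized with 0.04% DMSO, read for 20 min, then read again 60 min after compound addition (final DMSO 0.1%).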
# [2] = test system: hiPSC-derived neurons co-cultured with human primary astrocytes in 3D; test: Ca2+ transient oscillation assay (FDSS), 3D spheroids; type: cell-based; conditions: 60 min
# Outline: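 Fura-2 fluorescence was read twice for 20 min each: a baseline 10 min after 0.04% DMSO, and again 60 min after compound addition at nominal final concentration. The 3D co-cultures (1:1 hiPSC neurons from a donor and human astrocytes, 8000 each) matured 5 weeks in BrainPhys medium after a 1-week differentiation.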
# [3] = ref PharmaPendium, cited from earlier work
# [4] = read-out: Area under the curve - 2D Mean
# [5] = read-out: Peak amplitude - 2D Mean
# [6] = read-out: Peak-to-peak interval - 2D Mean
structure (smiles),measurement,setting,value
CC(=O)OCC[N+](C)(C)C [Acetylcholine],"effect on peak number / Ca2+ neuronal oscillations, in words",[1]; 2D format,significantly reduced peak number
same,activation at 11.11 µM,[1]; [4],38.3%
same,activation at 11.11 µM,[1]; read-out: Peak Number—2D Mean,2.4%
same,activation at 11.11 µM,[1]; [5],11.4%
same,activation at 11.11 µM,[1]; read-out: Peak width - 2D Mean,26.2%
same,activation at 11.11 µM,[1]; [6],28%
same,activation at 33.33 µM,[1]; [4],19.9%
same,activation at 33.33 µM,[1]; read-out: Peak Number—2D Mean,-31.5%
same,activation at 33.33 µM,[1]; [5],2.3%
same,activation at 33.33 µM,[1]; read-out: Peak width - 2D Mean,16.2%
same,activation at 33.33 µM,[1]; [6],-25.8%
same,activation at 100 µM,[1]; [4],-1.3%
same,activation at 100 µM,[1]; read-out: Peak Number—2D Mean,-47.2%
same,activation at 100 µM,[1]; [5],-17%
same,activation at 100 µM,[1]; read-out: Peak width - 2D Mean,-3.8%
same,activation at 100 µM,[1]; [6],11.3%
same,activation at 300 µM,[1]; [4],-6.1%
same,activation at 300 µM,[1]; read-out: Peak Number—2D Mean,-63.5%
same,activation at 300 µM,[1]; [5],-12.8%
same,activation at 300 µM,[1]; read-out: Peak width - 2D Mean,2.6%
same,activation at 300 µM,[1]; [6],45.5%
same,Area under the curve - 3D Mean,[2]; 11.11 µM,109.9 % change from baseline
same,Peak Number—3D Mean,[2]; 11.11 µM,−33.8 % change from baseline
same,Peak amplitude - 3D Mean,[2]; 11.11 µM,90.9 % change from baseline
same,Peak width - 3D Mean,[2]; 11.11 µM,4.2 % change from baseline
same,Peak-to-peak interval - 3D Mean,[2]; 11.11 µM,89.6 % change from baseline
same,Area under the curve - 3D Mean,[2]; 33.33 µM,110.9 % change from baseline
same,Peak Number—3D Mean,[2]; 33.33 µM,−51.6 * % change from baseline
same,Peak amplitude - 3D Mean,[2]; 33.33 µM,105.2 % change from baseline
same,Peak width - 3D Mean,[2]; 33.33 µM,0.4 % change from baseline
same,Peak-to-peak interval - 3D Mean,[2]; 33.33 µM,38.9 % change from baseline
same,Area under the curve - 3D Mean,[2]; 100 µM,97.3 % change from baseline
same,Peak Number—3D Mean,[2]; 100 µM,−34.9 % change from baseline
same,Peak amplitude - 3D Mean,[2]; 100 µM,88.6 % change from baseline
same,Peak width - 3D Mean,[2]; 100 µM,0.0 % change from baseline
same,Peak-to-peak interval - 3D Mean,[2]; 100 µM,−5.5 % change from baseline
same,Area under the curve - 3D Mean,[2]; 300 µM,72.7 % change from baseline
same,Peak Number—3D Mean,[2]; 300 µM,−68.3 ** % change from baseline
same,Peak amplitude - 3D Mean,[2]; 300 µM,56.5 % change from baseline
same,Peak width - 3D Mean,[2]; 300 µM,−12.2 % change from baseline
same,Peak-to-peak interval - 3D Mean,[2]; 300 µM,75.9 % change from baseline
same,Free Cmax,"[3]; Table 1, peak plasma concentration in men, free therapeutic Cmax",1000 to 10000 nM
same,Free Cmax,"[3]; Table 2, highest plasma concentration in humans after the therapeutic dose",1000 to 10000 nM
